In patent publication US11000568B2, “Means and methods for treating copper-related diseases” (HELMHOLTZ ZENTRUM MÜNCHEN—DEUTSCHES FORSCHUNGSZENTRUM FÜR …, priority 2015, dated 2021):
“Also recorded” adds a separate entry of the source. Numbered stars: 1 amine (or outer) side, 2 acyl side, 3 side chain; on linkers, the order of the positions; unused ones are H or OH. Bridge positions count the residues as written; N and C are the ends. Square brackets hold non-standard residues; d marks the D form. Peptide text beside a SMILES is read from it. * marks the point of attachment. X2 = O=C1OC(C2CCCN2[*:1])=NC1C(=S)NC(CO)C(=O)[*:2]; X1 = CC(C)CC(=O)C1=NC(C(=S)NCC(=O)*)C(=O)O1

Legend:
HepG2 cells [1] = experiment: Neutral red cell toxicity assay; format: cell-based; conditions: 24 hours, 0.05 to 1 mM Zinc-MB
Procedure: Neutral red cell toxicity assay was done as described elsewhere (Repetto et al., Nat Protoc 3, 1125-1131 (2008)). In brief, 2×10^4 cells were incubated for 24 hours either with medium alone (containing 2% FCS, negative control), 0.05 to
1 mM Zinc-MB, or 0.25 mM CCCP as mitochondriotoxic positive control and subsequently analyzed by neutral red.

HepG2 cells [2] = experiment: Mitochondrial membrane potential staining of HepG2 cells; format: cell-based; conditions: 500 μM MB
Procedure: For immunofluorescence staining, 2×10^4 cells were incubated with either medium alone, 500 μM MB or 250 μM CCCP in black 96-well plates with clear glass bottom. Staining was done by 1.6 μM Hoechst 33342 (ex 360-400 nm, em 410-480 nm), 300 nM MitoTracker® red (ex 620-640 nm, em 650-760 nm), and 1 μM nonyl acridine orange (NAO, ex 460-490 nm, em 500-550 nm) for 40 minutes at 37° C. After a washing step, fluorescence was analyzed.

metallothionein = conditions: in vitro and in vivo experiments; cited from earlier work
LPP−/− livers = experiment: Two hour LPP−/− liver perfusion; design: species or system rat
Procedure: LPP−/− livers (animal age 79-83 days) were perfused in a single pass manner with Krebs-Ringer bicarbonate solution containing 5 mM glucose (Beuers et al., J Biol Chem 278, 17810-17818 (2003)). The medium was gassed with 95% O2/5% CO2 and kept at 37° C. Rat livers were perfused via the portal vein (Beuers et al., log. cit.), the right lateral liver lobe was ligated and its copper content served as pre-perfusion control (Beuers et al., Hepatology 33, 1206-1216 (2001)). After cannulation of the bile duct a 20 min sample of bile was collected before the copper chelators were continuously added to the perfusion medium. Bile and outflow perfusate were collected in 10 min intervals as described elsewhere (Beuers et al., log. cit.). D-PA*HCl (20 mg/108 μmol), TETA*2HCl (20 mg/91 μmol), TTM*2NH4 (10 mg/38 μmol) and MB (40 mg/35 μmol) were each dissolved in 50 ml 0.9% NaCl, and continuously added to the perfusion medium via a perfusion pump (Perfusor, Braun, Melsungen) within 2 hours. The molar ratios of the chelators applied was MB 1:D-PA 3.1:TETA 2.6:TTM 1.1. LDH in the outflow perfusate was measured every ten minutes as described (Beuers et al., log. cit.). Control perfusions were done with Krebs-Ringer bicarbonate solution only.

CSCCC(NC(=O)C1CSSCC(NC(=O)C(CO)NC(=O)CNC(=S)C2N=C(C(=O)CC(C)C)OC2=O)C(=O)NC(Cc2ccc(O)cc2)C(=O)N2CCCC2C2=NC(C(=O)O2)C(=S)NC(CO)C(=O)N1)C(=O)O (centres unmarked) [MB] (X1-SCY[X2]CM-OH; disulfide 2-5; configuration not given here)
cytotoxic effects (neutral red) (HepG2 cells [1]): only observed at millimolar MB concentrations
mitochondrial membrane potential (HepG2 cells [2]): reduced the mitochondrial membrane potential only partially; also recorded: only intermediate phases of mitochondrial membrane potential loss
removal of Cu from metallothionein (metallothionein): has been shown to remove Cu from metallothionein
copper released into bile (LPP−/− livers; MB 0.7 μM, TTM 0.8 μM, D-PA 2.2 μM, TETA 1.8 μM): tenfold higher amounts of copper; also recorded: tenfold higher copper amounts into bile
liver copper content after perfusion (LPP−/− livers; vs pre-perfusion/buffer control): significantly reduced the copper content; also recorded: significantly reduces the liver copper content
